Consider two compounds from patent US20020115177A1, “Regulation of human histone deacetylase” (priority 2000, published 2002).

The subject of series [1] is histone deacetylase (SEQ ID NO:2). In words: Histone deacetylase assay with nuclear extract of recombinant HEK293 cells (3H-acetylated chicken core histones). In kind it is biochemical, human. Particulars: TSA 1 μM; 30° C. for 90 minutes; released radioactivity.
Method: Carboxy-terminal myc tagged histone deacetylase (SEQ ID NO:2) was cloned into a pcDNA3.1 vector and transfected into HEK293 cells. Recombinant clones were isolated and analyzed for histone deacetylase (HDAC) activity using the following procedure. Eight million recombinant or control cells were rinsed in 10 ml. of cold PBS, scraped, and spun at 500× g for 5 minutes. The cell pellet was rinsed with cold PBS and transferred to an Eppendorf tube. Nuclei were prepared by lysing the cells in 1 ml of Buffer A (10 mM HEPES, pH 7.5, 10 mM KCl, 1.5mM MgCl2, 0.5% NP40 and a cocktail of protease inhibitors without EDTA) on ice for 30 minutes. The lysate was spun at 1500× g for 5 minutes, then the supernatant was discarded. The pellet was washed in Buffer A without NP40. The nuclear pellet was sonicated three times for 5 seconds each on ice in 0.5 ml of 20 mM HEPES pH7.5, 1.5mM MgCl2, 10% glycerol and a cocktail of protease inhibitors without EDTA. The nuclear lysate was spun at 100,000× g for 30 min. Fifty μl aliquots of supernantant were stored at −80° C.
A HDAC assay was carried out in 100 μL of 25mM HEPES pH 7.5 buffer containing 0.1 mg/ml BSA, 1 mM MgCl2, 0.005% Triton X-100, ^3H-acetylated chicken core histones, and varying (0.5 to 4 μg) amounts of nuclear extracts at 30° C. for 90 minutes. […] Released radioactivity was counted as a measure of HDAC activity. […]
Series [2] relates to human histone deacetylase. In words: Expression of human histone deacetylase in oligonucleotide-treated HCT116 cells, by Western blotting. In kind it is cell-based. Particulars: oligonucleotide 10 μM once per day for seven days. As to the method: The cell line used for testing is the human colon cancer cell line HCT116. Cells are cultured in RPMI-1640 with 10-15% fetal calf serum at a concentration of 10,000 cells per milliliter in a volume of 0.5 ml and kept at 37° C. in a 95% air/5%CO2 atmosphere. Phosphorothioate oligoribonucleotides are synthesized on an Applied Biosystems Model 380B DNA synthesizer using phosphoroamidite chemistry. A sequence of 24 bases complementary to the nucleotides at position 1 to 24 of SEQ ID NO: 1 is used as the test oligonucleotide. As a control, another (random) sequence is used: 5'-[NT] ID NO:23). Following assembly and deprotection, oligonucleotides are ethanol-precipitated twice, dried, and suspended in phosphate buffered saline at the desired concentration. Purity of the oligonucleotides is tested by capillary gel electrophoresis and ion exchange HPLC. The purified oligonucleotides are added to the culture medium at a concentration of 10 μM once per day for seven days. […] This effect is not observed with the control oligonucleotide. After 3 to 7 days, the number of cells in the cultures is counted using an automatic cell counter. The number of cells in cultures treated with the test oligonucleotide (expressed as 100%) is compared with the number of cells in cultures treated with the control oligonucleotide.
(In general: Immunoblotting shows a protein as a band on a membrane.)

Consider `CC(/C=C/C(=O)NO)=C\[C@@H](C)C(=O)c1ccc(N(C)C)cc1` [TSA, Trichostatin A], for which the “inhibition of HDAC activity of recombinant nuclear extract” value in series [1] was “inhibited”.

As for “control oligonucleotide: Control (random) sequence: 5′-TCAACTGACTAGATGTACATGGAC-5′ (SEQ ID NO:23) (TCAACTGACTAGATGTACATGGAC; listed as DNA, chemistry not fully specified)”, the “expression of human histone deacetylase as determined by Western blotting” value in series [2] is “not observed”.
